Reference: patent US11726079B2, “Lighting systems and methods of using lighting systems for in vitro potency assay for Photofrin” (Concordia Laboratories, Inc., priority 2012, dated 2023)
“And” between values parts separate entries of the source, which are not always exact repeats. Equal entries are not always repeated. Marks after values point to notes of the source that are not given here.

Test system: A549 human lung carcinoma cells
Assay: In vitro potency assay for Photofrin®: A549 cells, 4 h drug absorption, wash, 10 min irradiation at 400-650 nm, 24 h, XTT viability, 4PL EC50
Assay type: cell-based
Design: key to EC50-XTT / EC50 STD / EC50 Test: EC50 as Photofrin concentration in μg/mL (4PL inflection point)
Settings: for EC50 Test / Black plate EC50 / EC50 STD: in µg/mL; for Black plate EC50: black plate with black lid; for Clear Plate EC50: clear 96-well plate; for Potency of Test Sample / Potency of Test Sample, Mean / Experimental Potency: ratio EC50(standard)/EC50(test); for Potency of Test Sample / Potency of Test Sample, Mean: expected 0.5; for EC50 STD: standard sample (70 μg/mL high test drug concentration)
Procedure: Cell passaging of A549 cells is performed using fixed seeding densities to reduce assay variation resulting from cell culture conditions. […] Working in very low light conditions, Photofrin® is reconstituted in normal saline to 2.5 mg/mL and diluted further in culture medium at twice the desired final assay concentration, typically 140 μg/mL. A series of two-fold dilutions were then prepared from the 140 μg/mL solution and the diluted drug was added to the cells at 1:1 (v/v) according to the diagram shown in FIG. 11.
[…] The plate is then removed from the incubator, the drug is aspirated, the wells are washed with Dulbecco's phosphate buffered saline (DPBS) and fresh, pre-warmed medium is added to the wells. […] […] The wells covered with foil strips are important controls for the activity of Photofrin® in the absence of irradiation and the effect of light on the cells in the absence of drug.
The optical absorbance of the wells in column 1 (high drug concentration, no cells) is evaluated for absorption at 450 nm to ensure that the drug is not interfering with the XTT assay. The percent viability of each of the wells in columns 2-9 and 11 is calculated relative to the mean value of column 10 (cell control, no drug, no light). For each dose response obtained, a four parameter logistic (4PL) nonlinear regression analysis is performed of the percent viability versus the log-Photofrin® concentration. The point of inflection of the regression curve (C value) is defined as the EC50 and used in the calculation of relative potency. Curve fitting and calculation of the EC50 is performed with Softmax v5.4.2 (Molecular Devices, Inc.) or Prism v.5.04 (GraphPad, Software Inc.) software. The mean percent viability of columns 9 and 11 is also calculated.
• 1. Materials and Reagents • 1.1. A549 Human Lung Carcinoma (ATCC—Cat. No.: CCL-185) • 1.2. 25 cm^2 Flasks (Corning—Cat. No.: 431463, or equivalent) • 1.3. 75 cm^2 Flasks (Corning—Cat. No.: 431464, or equivalent) • 1.4. 50 mL tubes (Fisher Scientific—Cat. No. 17-512F, or equivalent) • 1.5. Hemacytometer • 1.6. RPMI-1640 (+) phenol red (Lonza—Cat. No.: 12-167F, or equivalent) • 1.7. HI-FBS (Gibco—Life Technologies—Cat No.: 10082-147, or equivalent) • 1.8. 200 mM L-Glutamine (Lonza—Cat. No.: 17-605E, or equivalent) • 1.9. 0.25% Trypsin-EDTA (Gibco—Cat. No.: 25200-056, or equivalent) • 2. Instruments • 2.1. Forma Scientific centrifuge with swinging bucket rotor (Model 5682, or equivalent) • 2.2. Water bath set at 37° C. • 2.3. […] Prepared Reagents • 3.1. RPMI-1640 Complete Media • 3.1.1. 500 mL bottle of RPMI-1640 basal media containing phenol red • 3.1.2. Add 50 mL HI-FBS • 3.1.3. Add 5.5 mL of 200 mM L-Glutamine • 4. Procedure • 4.1. Remove one vial of A549 lung carcinoma cells from liquid nitrogen storage and after ensuring that the vial is tightly closed, rapidly thaw vial by holding all but the top of the vial submerged in a 37° C. water bath until the vial contents begins to thaw but while ice still remains. • 4.2. Liberally spray the vial with 70% ethanol, wipe with tissue, and place into a laminar flow hood. • 4.3. Transfer the contents of the vial to a 50 mL conical tube containing 9 mL RPMI-1640 complete medium containing phenol red (Step 3.1) (hereafter referred to as complete medium in this method). • 4.4. Centrifuge the tube in a swing bucket rotor set at 1200 RPM (220 RCF) for five minutes at room temperature. • 4.5. Discard supernatant and gently flick the tube to resuspend the cells in the residual volume left in the tube. • 4.6. Add 5 mL complete medium, transfer the cell solution to a 25 cm^2 flask, and then place the flask into a 37° C. incubator with 5% CO2. • 4.7. Monitor the flask daily and when the cells reach approximately 80% confluence, remove the media, and wash the cells by adding 2 mL DPBS to the flask. Ensure that all cells are rinsed and discard the DPBS. • 4.8. Add 1 mL 0.25% trypsin-EDTA to prewash the cells, tip flask to coat all cells, and discard the trypsin. • 4.9. […]

[1] = seeding density 0.8 × 10^4 cells/well
[2] = seeding density 1.2 × 10^4 cells/well
[3] = seeding density 1.9 × 10^4 cells/well

porfimer sodium [Photofrin®] was tested, and the “EC50 Test” value (Test sample of theoretical potency 0.5) was 21.3 and 21.7, the “EC50 Test” value (Test sample of theoretical potency 2) was 5.16 and the “EC50 Test” value (Test sample of theoretical potency 4 (dissolved in one-fourth the nominal volume), confidence interval wide due to poor curve fitting) was 2.36*. The Test Sample EC50 (Test sample, 35 μg/mL high test concentration regressed as if 70 μg/mL, Plate 1 (placement Standard, Test; left to right dilution; controls in columns 9-11)) was 21.2 µg/mL, the Test Sample EC50 (Test sample, 35 μg/mL high test concentration regressed as if 70 μg/mL, Plate 2 (placement Test, Standard; left to right dilution; controls in columns 9-11)) was 22.2 µg/mL and the Test Sample EC50 (Test sample, 35 μg/mL high test concentration regressed as if 70 μg/mL, Plate 3 (right to left dilution; controls in columns 9-11)) was 21.5 µg/mL. For the same substance, the Test Sample EC50 (Test sample, 35 μg/mL high test concentration regressed as if 70 μg/mL, Plate 4 (placement Standard, Test; left to right dilution; controls in columns 9-11)) was 21.5 µg/mL, the Test Sample EC50 (Test sample, 35 μg/mL high test concentration regressed as if 70 μg/mL, Plate 5 (left to right dilution; controls in columns 2-4)) was 20.1 µg/mL and the Test Sample EC50, Mean (Test sample, 35 μg/mL high test concentration regressed as if 70 μg/mL, mean across Plates 1-5 of positional analysis) was 21.3 µg/mL. For the same substance, the “Black plate EC50” value (experiment PIN-004, nine point dose response 250-0.977 μg/m) was 8.08, the “Black plate EC50” value (experiment PIN-008, six point dose response 30.0-1.09 μg/mL) was 10.1 and 9.48 and 9.59 and the Black plate EC50, Mean (black plate, mean of PIN-004 and PIN-008 values) was 9.31 µg/mL. The “Clear Plate EC50” value (experiment PIN-004, nine point dose response 250-0.977 μg/m, in µg/mL (unit assumed)) was 1.87, the “Clear Plate EC50” value (experiment PIN-008, six point dose response 30.0-1.09 μg/mL, in µg/mL (unit assumed)) was 2.49 and 2.46 and 2.33 and the Clear Plate EC50, Mean (clear plate, mean of PIN-004 and PIN-008 values) was 2.29 µg/mL. For the same substance, the EC50-XTT (experiment PIN-009, XTT endpoint, in µg/mL (unit assumed)) was 9.48 and 9.42, the EC50-XTT, Mean (experiment PIN-009, XTT endpoint, mean) was 9.45 µg/mL and the “Potency of Test Sample” value (A549 cells at passage P10) was 0.556. The “Potency of Test Sample” value (A549 cells at passage P17) was 0.526, the “Potency of Test Sample” value (Inter-operator Assay, AB-1) was 0.465 and the “Potency of Test Sample” value (Inter-operator Assay, AB-2) was 0.564. The “Potency of Test Sample, Mean” value (Inter-operator Assay, mean of operator AB plates) was 0.515, the Potency of Test Sample, Mean (Inter-operator Assay, mean of operator KP plates) was 0.487 and the “Potency of Test Sample” value (Inter-operator Assay, operator KP, both plates KP-1) was 0.470 and 0.503. The “Potency of Test Sample” value (absorption time 3.5 hours) was 0.533, the “Potency of Test Sample” value (absorption time 4.0 hours) was 0.507 and the “Potency of Test Sample” value (absorption time 4.5 hours) was 0.573. For the same substance, the “Potency of Test Sample” value (irradiation time 8 minutes) was 0.490, the “Potency of Test Sample” value (irradiation time 9 minutes) was 0.476 and the “Potency of Test Sample” value (irradiation time 10 minutes) was 0.487. For the same substance, the “Potency of Test Sample” value (irradiation time 11 minutes) was 0.555, the “Potency of Test Sample” value (irradiation time 12 minutes) was 0.514 and the “Potency of Test Sample” value (operator AB Pilot Assay-1) was 0.411. For the same substance, the “Potency of Test Sample” value (operator AB Pilot Assay-2) was 0.537, the “Potency of Test Sample” value (post-irradiation incubation time 22 hours) was 0.549 and the “Potency of Test Sample” value (post-irradiation incubation time 24 hours) was 0.54. The “Potency of Test Sample” value (post-irradiation incubation time 26 hours) was 0.575, the “Potency of Test Sample” value (post-irradiation temperature 35° C.) was 0.448 and the “Potency of Test Sample” value (post-irradiation temperature 37° C. (nominal, two experiments)) was 0.543 and 0.495. The “Potency of Test Sample” value (post-irradiation temperature 39° C.) was 0.516, the “Potency of Test Sample” value [1] was 0.521 and the “Potency of Test Sample” value [2] was 0.391. For the same substance, the “Potency of Test Sample” value [3] was 0.526, the “Experimental Potency” value (theoretical potency 0.5) was 0.526 and 0.516 and the “Experimental Potency” value (theoretical potency 2) was 2.05. The “Experimental Potency” value (theoretical potency 4, wide confidence interval on EC50) was 4.36*, the “Mean Potency” value (ratio of the EC50(standard)/EC50(test), positional analysis, Plates 1-5, Test sample is Standard diluted two-fold) was 0.516 and the “EC50 STD” value (assayed with Test sample of theoretical potency 0.25) was 11.6. The “EC50 STD” value (assayed with Test sample of theoretical potency 2) was 10.6, the “EC50 STD” value (assayed with Test sample of theoretical potency 4) was 10.3 and the “EC50 STD” value [1] was 11.0. For the same substance, the “EC50 STD” value [2] was 10.9, the “EC50 STD” value [3] was 11.2 and the “killing of the cells” value (treatment of cells followed by irradiation at 400-650 nm) was “dose-dependent killing of the cells”.
